Results on two compounds are retold here after ChEMBL document CHEMBL1135894, “Design and synthesis of a novel and potent series of inhibitors of cytosolic phospholipase A(2) based on a 1,3-disubstituted propan-2-one skeleton” (J Med Chem, 2002).

In this assay the test system is HL-60. Briefly: Inhibition of [3H]arachidonic acid production by stimulated HL60 cells. Format: functional, cell-based. The following applies: Homo sapiens.

As a reminder, the IC50 is the concentration that gives 50% inhibition. High values mean weaker potency, low ones greater potency. `CCCCCCCCCCOc1ccc(OCC(=O)COc2ccc(C(=O)O)cc2)cc1` came in with an IC50 of 2.8 µM.
Take `CCCCC/C=C\C/C=C\C/C=C\C/C=C\CCCC(=O)C(F)(F)F` [ARACHIDONYL TRIFLUOROMETHYLKETONE]: the IC50 was 29 µM.
